According to patent US11008325B2, “Inhibitors of cancer invasion, attachment, and/or metastasis” (VIRGINIA COMMONWEALTH UNIVERSITY, priority 2016, dated 2021):
Entries after “also recorded” stand apart in the source; their conditions may differ.

What was measured:
[1] = system: HBMEC barrier over GBM6 cells; test: HBMEC transwell blood brain barrier surrogate assay; assay type: in vitro ADME, human; details: 50 μM PDZ1i, 24 h, read out as GBM6 invasion
Description: FIG. 12. PDZ1i crosses the blood brain barrier (BBB). Primary human malignant glioma cells (GBM6) were seeded on the bottom well of a transwell chamber. In the top chamber, a monolayer of HBMEC cells separated GBM6 cells from media containing DMSO, 50 μM PDZ1i or Temozolomide (500 μM). After 24 h incubation in these conditions, invasion of GBM6 cells were analyzed by seeding in a trans-well Matrigel invasion assay and stained after 24 h. NB: PDZ1i treatment and invasion assay without HBMEC barrier. Error bars=f s.d.
A critical property of a potential therapeutic agent is its stability in the circulation and bioavailability in vivo. […] Additionally, when treating glioma pharmaceutically, the ability for a compound to cross the blood brain barrier (BBB) is paramount. […] Prior to in vivo efficacy studies, we evaluated the ability of the compound to cross the blood brain barrier using a target-based surrogate cellular assay. This method is preferred to direct in vivo measurements of compound concentration in the brain because of low sensitivity of the detection methods, and most importantly because of the presence of drug in various vascular spaces, i.e., the residual blood of the brain. […] After 24 h, we assessed the invasive ability of the treated GBM6 cells compared to pretreated controls. […]

[2] = system: various types of cancer cells including PC; test: modified Boyden Chamber invasion assay; assay type: cell-based, human; details: pre-treatment, dose as indicated (20 μM or 40 μM)
Description: FIGS. 17A-17H. Effect of PDZ1i on invasion, MDA-9/IGF-R1 interaction and IGF-R1, STAT3 and SRC phosphorylation. FIG. 17A) Different cancer cells (25,000 cells/well) from various anatomic origins were pre-treated with either DMSO (vehicle) or PDZ1i (dose as indicated) and invasion ability was assayed using modified Boyden Chamber according to the manufacturer's instructions. Photomicrographs were taken at 10× magnification and quantification of the results of three independent experiments is provided in the graphs. The data presents mean±S.D. B) The designated cells were treated with DMSO or PDZ1i and invasion properties were determined using a modified Boyden Chamber assay (BD bioscience). RWPE-1 mda-9: mda-9 transiently overexpressing cell line. […] FIG. 17E) Cells were growth starved for 24 h and treated with either DMSO or PDZ1i (dose indicated in μM) for 6 h. Cells were treated with human recombinant IGFBP-2 (hIGFBP-2, 10 ng/ml) for 2 h, lysates were prepared and western blot analysis was conducted with specific antibodies. […] Cells were treated with human recombinant IL-6 (hIGFBP-2, 1 ng/ml) for 2 h, cell lysates were prepared and analyzed by western blotting. […]
Boyden chamber assays were done to investigate the invasive properties of cancer cells^26, 27. […] After 18 h, invasive cells were photographed and analyzed.

U87 cells = test: clonogenic radiosurvival (colony formation); assay type: cell-based, human; details: 50 μM PDZ1i 2 h prior to radiation, 14 d
Description: (§1) FIGS. 8A-8D. PDZ1i produces similar effects to mda-9/syntenin knockdown post-radiation. FIG. 8A. ImPHFA and U87 cells were treated with 50 μM PDZ1i 2 h prior to radiation and analyzed for colony formation after 14 d. FIG. 8B. U87 cells were treated with 50 μM PDZ1i 2 h prior to radiation and analyzed via MTT assay after 24 h. FIG. 8C. U87 cells were pretreated with 50 μM PDZ1i 2 h prior to radiation and subsequently seeded in a trans-well Matrigel invasion assay and stained after 24 h. Invasion was quantified from 5 random fields in FIG. 8D. Error bars=±s.d. *p<0.05, **p<0.01.
(§2) Clonogenic radiosurvival experiments were carried out as described previously (4,7). Briefly, cells were diluted, seeded on 6-cm dishes, and after the cells attached, treated with DMSO or PDZ1i (12.5, 25, or 50 μM) in the medium for 2 h before irradiation. Cells were incubated overnight, and the medium changed to nondrug containing medium 16 h postirradiation. Cells were incubated further for 14 days, stained with 2% Giemsa solution, and colonies consisting of 50 or more were counted. Cell viability was assessed through MTT analysis as described previously (8).

ImPHFA cells = test: clonogenic radiosurvival (colony formation); assay type: cell-based, human; details: 50 μM PDZ1i 2 h prior to radiation, 14 d
Description: as §1, §2

Structure (SMILES): Cc1cc(NC(=O)c2nc3[nH]c4c(c(=O)n3n2)CCC4)c(C)cc1NC(=O)CCc1nnc(-c2ccccc2)o1 [113B7, N-(2,5-dimethyl-4-(3-(5-phenyl-1,3,4-oxadiazol-2-yl)propanamido)phenyl)-8-oxo-5,6,7,8-tetrahydro-4H-cyclopenta[d][1,2,4]triazolo[1,5-a]pyrimidine-2-carboxamide]
- crossing of the HBMEC barrier (blood brain barrier surrogate) [1]: effectively crossed the HBMEC barrier
- invasion [2]: inhibited invasion in a dose-dependent manner; also recorded: significantly inhibited the invasion
- invasion ([2]; listed as PDZ1i): significantly inhibited the invasion
- radiosensitivity (colony formation) (U87 cells): markedly more radiosensitivity
- radiosensitivity (colony formation) (ImPHFA cells): did not further radiosensitize
